Like-named read-outs stand apart in the source and are kept apart here. No end group written: not given here.
System: unilateral 6-hydroxydopamine (6-OHDA) lesioned rat
Assay type: in vivo, Male Sprague-Dawley rats
Settings: for effect on onset of rotational action of apamin: given with apamin
Description: The potential antiparkinsonian activity of apitoxin (bee venom; Alyostal®), and certain of its constituents such as apamin, melittin, hyaluronidase, and others were investigated in the standard, unilateral 6-hydroxydopamine (6-OHDA) lesioned rat model, in animals responding to an apomorphine challenge, according to the method previously described with minor modifications (Oh J D, Chartisathian K, Ahmed S M, and Chase T N. (2003) J of Neurosci. Res. 72, 768-780, Oh J D, Chartisathian K, Chase T N and Butcher L L, (2000) Brain Res. 853, 174-185, Oh J D and Chase T N. (2002) Amino Acids 23, 133-139, Oh J D, Del Dotto P, Chase T N. (1997) Neurosci Lett. 228, 5-8, Oh J D, Geller A I, Zhang G, Chase T N. (2003) Br. Res. 971, 18-30, Oh J D, Russell D, Vaughan C L and Chase T N. (1998) Br. Res. 813, 150-159.). Conventional anti-parkinsonian dopamine (DA) agonists, apomorphine, amphetamine, and L-dopa were used as comparator drugs. Control animals received vehicle, phosphate buffered saline (PBS). Rotation (turning) behavior in response to drug challenge was used as a predictor of anti-parkinson activity. All compounds or vehicle were administered either subcutaneously (s.c.) or intraperitonealy (i.p.).
The anti-parkinson activity of various test substances was studied as previously described 1-6. Male Sprague-Dawley rats weighing approximately 300 g were housed with free access to food and water. Under […] (50 mg/kg, i.p.), the nigrostriatal pathway was unilaterally lesioned by administering 6-OHDA HCl (8 μg in 4 μL of saline with 0.02% ascorbate) into the left medial forebrain bundle (AP −5.0, L 1.3, V 8.0 from the dura mater). Following surgery, rats were challenged with apomorphine (0.1 mg/kg, s.c.), to confirm the lesion of nigro-striatal pathway. Rats that responded to apomorphine were kept for further testing.
Rats received test drugs, comparator drugs, or vehicle on post-surgical Week 3 following 6-OHDA lesioning and subsequently for additional […] (Week 4-10 post-surgery).
Rotation behavior was measured by placing rats in a rotometer and measuring turning behavior over 5-minute periods (5-min bins). To measure rotation behavior, each animal was placed at least 10 minutes prior to the drug or vehicle administration into a rotometer and turning was measured. Animals then received test drugs, and turning behavior was measured as described above for 4 to 12 hours post-drug administration.

[1] = Melittin 0.5 to 3 mg/kg with apamin 0.5 to 1.0 mg/kg
[2] = Melittin alone, dose range 1-3 mg/kg
[3] = Hyaluronidase alone, dose range 10 to 30 mg/kg
[4] = PL-A2 alone, approximately 2 and 3 mg/kg i.p.
[5] = Phospholipase A2 alone, dose range 2 to 3 mg/kg

For `CC(C)C[C@@H]1NC(=O)[C@H](C)NC(=O)[C@H]([C@@H](C)O)NC(=O)[C@H](CCC(=O)O)NC(=O)[C@@H]2CCCN2C(=O)[C@H](C)NC(=O)[C@H](CCCCN)NC(=O)[C@@H]2CSSC[C@@H](C(=O)N[C@@H](CCC(N)=O)C(=O)N[C@@H](CCC(N)=O)C(=O)N[C@@H](Cc3cnc[nH]3)C(N)=O)NC(=O)[C@H](CCCNC(=N)N)NC(=O)[C@H](CCCNC(=N)N)NC(=O)[C@H](C)NC(=O)[C@H](CSSC[C@H](N)C(=O)N[C@@H](CC(N)=O)C(=O)N2)NC1=O` [Apamin, apamin], which “Atypical Motor Behaviors” value (Apamin 0.5 mg/kg alone) is on record?
Its value is “None”.

And the “Atypical Motor Behaviors” value (Apamin 1 mg/kg alone)?
The value was “Mild”.

And the “Atypical Motor Behaviors (dose at which seen)” value (apamin alone)?
The value was “≧1.5 mg/kg”.

And the “doses at which abnormal motor behaviors increasingly interfered with normal and rotatory motor behaviors” value (apamin alone)?
The value was 1.5 to 3.0 mg/kg.

And the “doses at which abnormal motor behaviors were clinically insignificant” value (apamin alone)?
The value was 0.75 to 1.50 mg/kg.

And the “dose at which atypical motor behavior began to appear” value (apamin alone, tremors, dystonic postures, alterations in muscular tone, locomotor incoordination)?
Its value is “about 1.5 mg/kg”.

And the “therapeutic index compared with apitoxin” value (motoric response, apamin alone)?
Its value is “lower therapeutic index”.

How did the “effect on apamin-induced contralateral rotations” value (apomorphine co-administration at less than standard dose, 0.005 mg/kg s.c.) turn out when `CN1CCc2cccc3c2[C@H]1Cc1ccc(O)c(O)c1-3` [Apomorphine, apomorphine, reference compound] was run?
The value was “mildly potentiate”.

For `CC[C@H](C)[C@H](NC(=O)CN)C(=O)NCC(=O)N[C@@H](C)C(=O)N[C@H](C(=O)N[C@@H](CC(C)C)C(=O)N[C@@H](CCCCN)C(=O)N[C@H](C(=O)N[C@@H](CC(C)C)C(=O)N[C@H](C(=O)N[C@H](C(=O)NCC(=O)N[C@@H](CC(C)C)C(=O)N1CCC[C@H]1C(=O)N[C@@H](C)C(=O)N[C@@H](CC(C)C)C(=O)N[C@H](C(=O)N[C@@H](CO)C(=O)N[C@@H](Cc1c[nH]c2ccccc12)C(=O)N[C@H](C(=O)N[C@@H](CCCCN)C(=O)N[C@@H](CCCNC(=N)N)C(=O)N[C@@H](CCCCN)C(=O)N[C@@H](CCCNC(=N)N)C(=O)N[C@@H](CCC(N)=O)C(=O)N[C@@H](CCC(N)=O)C(N)=O)[C@@H](C)CC)[C@@H](C)CC)[C@@H](C)O)[C@@H](C)O)C(C)C)C(C)C` [Melittin], which “effect on rotatory response to apamin” value (0.25 mg/kg apamin and 0.75 mg/kg melittin) is on record?
The value was “potentiated”.

And the “atypical motor behaviors that apamin usually induces” value [1]?
Its value is “mild to absence”.

What about the “onset of contralateral rotations” value [1] of the same compound?
Its value is “faster onset”.

What about the “Atypical Motor Behaviors” value [2] of the same compound?
Its value is “None”.

And the “Rotational Response Contralateral” value [2]?
The value was 10 number of turns in 12 hours.

What about the “Rotational Response Ipsilateral” value [2] of the same compound?
The value was 45 to 50 number of turns in 12 hours.

What about the “ability similar to apamin to induce a conspicuous turning response” value (shortened to “ability similar to apamin”) (apitoxin component given alone) of the same compound?
Its value is “none”.

What about the “effect on onset of rotational action of apamin” value of the same compound?
The value was “significantly hasten”.

And the rotational response (melittin alone 0.5 to 10 mg/kg i.p., contralateral more frequent than ipsilateral)?
The rotational response was “modest, intermittent rotational response”.

How did the “effect on apamin-induced ipsilateral rotation” value (amphetamine co-administration at less than the standard dose of 0.05 mg/kg i.p.) turn out when `CC(N)Cc1ccccc1` (centres unmarked) [amphetamine, reference compound] was run?
Its value is “mildly potentiate”.

How did the “ability similar to apamin” value (rat, in vivo) turn out when `NCCc1c[nH]cn1` [histamine, Histamine, reference compound] was run?
The value was “none”.

How did the “effect on apamin-induced contralateral rotations” value (levodopa co-administration at less than standard dose, 5 mg/kg i.p.) turn out when `N[C@@H](Cc1ccc(O)c(O)c1)C(=O)O` [levodopa, reference compound] was run?
The value was “mildly potentiate”.

“HTGAVLAGV [HTGAVLAGV, reference compound]” was tested. Which “Atypical Motor Behaviors” value (HTGAVLAGV alone, 1-10 mg/kg) did it give?
The value was “None”.

For Hyaluronidase, which “effect on atypical motor behaviors induced by apamin” value (1.0 mg/kg apamin and 20 mg/kg hyaluronidase) is on record?
The value was “reduced”.

And the “Atypical Motor Behaviors” value [3]?
The value was “None”.

What about the “Rotational Response Contralateral” value [3] of the same compound?
Its value is 5 number of turns in 12 hours.

What about the “Rotational Response Ipsilateral” value [3] of the same compound?
Its value is 40 number of turns in 12 hours.

What about the “ability similar to apamin” value (apitoxin component given alone) of the same compound?
The value was “none”.

What about the “effect on ipsilateral turning behavior induced by apamin” value (hyaluronidase 5 to 20 mg/kg i.p. with apamin 0.1 to 1.0 mg/kg) of the same compound?
Its value is “mildly potentiated”.

What about the turning (hyaluronidase given alone, 0.5 to 30 mg/kg i.p.) of the same compound?
Its turning is “did not induce turning”.

And the “effect on atypical motor behaviors observed with higher doses of apamin” value (hyaluronidase with apamin, vs apamin given alone)?
Its value is “decreased”.

“Mast Cell Degranulating Peptide (IKCNCKRHVIKPHICRKICGKN; ends and bridges not checked; cysteine pairing not given here; UniProt P01499 28-49, looked up) [apitoxin component, GenScript #RP10663, reference compound]” was tested. Which “ability similar to apamin” value (apitoxin component given alone) did it give?
The value was “none”.

With Phospholipase A-2 [Phospholipase A2] as the compound, how does the “effect on rotatory response to apamin” value (0.5 mg/kg apamin and 5 mg/kg PLA-2) read?
The value was “potentiated”.

What about the “duration of ipsilateral rotations” value [4] of the same compound?
Its value is “about 4 hours”.

And the rotational response [4]?
Its rotational response is “induced ipsilateral rotations”.

And the “start of ipsilateral rotations after administration” value [4]?
The value was 1 to 4 h.

And the Atypical Motor Behaviors (PL-A2 given alone)?
Its Atypical Motor Behaviors is “No atypical motor behaviors were observed”.

And the motor response (PL-A2 given alone, 1 mg/kg i.p.)?
Its motor response is “minimal squirming response”.

What about the “effect on onset of turning behavior” value (PLA-2 given with apamine) of the same compound?
Its value is “accelerated”.

What about the “effect on turning behavior” value (PLA-2 given with apamine) of the same compound?
Its value is “moderately potentiated”.

What about the “Atypical Motor Behaviors” value [5] of the same compound?
Its value is “None”.

And the “Rotational Response Contralateral” value [5]?
The value was 10 number of turns in 12 hours.

And the “Rotational Response Ipsilateral” value [5]?
The value was 50 to 60 number of turns in 12 hours.

And the “ability similar to apamin” value (apitoxin component given alone)?
Its value is “none”.

What about the “effect on onset of rotational action of apamin” value of the same compound?
Its value is “significantly hasten”.

With Secapin [reference compound] as the compound, how does the “Atypical Motor Behaviors” value (Secapin alone, 1-20 mg/kg) read?
Its value is “None”.

What about the “Rotational Response Contralateral” value (Secapin alone, 1-20 mg/kg) of the same compound?
Its value is 5 number of turns in 12 hours.

And the “Rotational Response Ipsilateral” value (Secapin alone, 1-20 mg/kg)?
Its value is 40 number of turns in 12 hours.

What about the “rotational behavior above baseline (spontaneous rotation)” value (Secapin at 1 to 20 mg/kg) of the same compound?
Its value is “little or no rotational behavior”.

And the “ability similar to apamin” value (apitoxin component given alone)?
Its value is “none”.

Which results are given for “Tertiapin (ALCNCNRIIIPHMCWKKCGKK; UniProt P56587 1-21, looked up) [apitoxin component, Sigma-Aldrich #T8316, reference compound]”?
Atypical Motor Behaviors (Tertiapin alone, 1 and 3 mg/kg): None; Rotational Response Contralateral (Tertiapin alone, 1 and 3 mg/kg): 5 number of turns in 12 hours; Rotational Response Ipsilateral (Tertiapin alone, 1 and 3 mg/kg): 40 number of turns in 12 hours; rotational behavior above baseline (spontaneous rotation) (Tertiapin at 1 and 3 mg/kg): little or no rotational behavior; ability similar to apamin to induce a conspicuous turning response (apitoxin component given alone): none
